For the assay, the target named is T1, ΔF508-CFTR (Homo sapiens, UniProt P13569, DEL508-508).
T1 construct: expressed in transfected cells
The assay is described as follows: Membrane potential optical assay for ΔF508-CFTR correction (single-addition HTS format). Format: cell-based. To be noted: NIH3T3 mouse fibroblasts stably expressing ΔF508-CFTR; 16-24 hrs with compound; activation with 10 μM forskolin and 20 μM genistein; read-out: BinnedMaxEfficacy (PercentActivity). The text has this: Membrane potential optical methods for assaying ΔF508-CFTR modulation properties of compounds.
The assay utilizes fluorescent voltage sensing dyes to measure changes in membrane potential using a fluorescent plate reader (e.g., FLIPR III, Molecular Devices, Inc.) as a readout for increase in functional ΔF508-CFTR in NIH 3T3 cells. The driving force for the response is the creation of a chloride ion gradient in conjunction with channel activation by a single liquid addition step after the cells have previously been treated with compounds and subsequently loaded with a voltage sensing dye.
To identify small molecules that correct the trafficking defect associated with ΔF508-CFTR; a single-addition HTS assay format was developed. Assay Plates containing cells are incubated for ˜2-4 hours in tissue culture incubator at 37° C., 5% CO2, 90% humidity. Cells are then ready for compound exposure after adhering to the bottom of the assay plates.
The cells were incubated in serum-free medium for 16-24 hrs in tissue culture incubator at 37° C., 5% CO2, 90% humidity in the presence or absence (negative control) of test compound. The cells were subsequently rinsed 3× with Krebs Ringers solution and loaded with a voltage sensing redistribution dye. To activate ΔF508-CFTR, 10 μM forskolin and the CFTR potentiator, genistein (20 μM), were added along with Cl^−-free medium to each well. The addition of Cl^−-free medium promoted Cl^− efflux in response to ΔF508-CFTR activation and the resulting membrane depolarization was optically monitored using voltage sensor dyes.
Bath Solution #1: (in mM) NaCl 160, KCl 4.5, CaCl2 2, MgCl2 1, HEPES 10, pH 7.4 with NaOH.
Chloride-free bath solution: Chloride salts in Bath Solution #1 are substituted with gluconate salts.
NIH3T3 mouse fibroblasts stably expressing ΔF508-CFTR are used for optical measurements of membrane potential. The cells are maintained at 37° C. in 5% CO2 and 90% humidity in Dulbecco's modified Eagle's medium supplemented with 2 mM glutamine, 10% fetal bovine serum, 1×NEAA, β-ME, 1× pen/strep, and 25 mM HEPES in 175 cm^2 culture flasks. For all optical assays, the cells were seeded at ˜20,000/well in 384-well matrigel-coated plates and cultured for 2 hrs at 37° C. before culturing at 27° C. for 24 hrs. for the potentiator assay. For the correction assays, the cells are cultured at 27° C. or 37° C. with and without compounds for 16-24 hours.

The structures appear in SMILES notation.

T1 sequence (P13569 with tags, fused parts or gaps DEL508-508): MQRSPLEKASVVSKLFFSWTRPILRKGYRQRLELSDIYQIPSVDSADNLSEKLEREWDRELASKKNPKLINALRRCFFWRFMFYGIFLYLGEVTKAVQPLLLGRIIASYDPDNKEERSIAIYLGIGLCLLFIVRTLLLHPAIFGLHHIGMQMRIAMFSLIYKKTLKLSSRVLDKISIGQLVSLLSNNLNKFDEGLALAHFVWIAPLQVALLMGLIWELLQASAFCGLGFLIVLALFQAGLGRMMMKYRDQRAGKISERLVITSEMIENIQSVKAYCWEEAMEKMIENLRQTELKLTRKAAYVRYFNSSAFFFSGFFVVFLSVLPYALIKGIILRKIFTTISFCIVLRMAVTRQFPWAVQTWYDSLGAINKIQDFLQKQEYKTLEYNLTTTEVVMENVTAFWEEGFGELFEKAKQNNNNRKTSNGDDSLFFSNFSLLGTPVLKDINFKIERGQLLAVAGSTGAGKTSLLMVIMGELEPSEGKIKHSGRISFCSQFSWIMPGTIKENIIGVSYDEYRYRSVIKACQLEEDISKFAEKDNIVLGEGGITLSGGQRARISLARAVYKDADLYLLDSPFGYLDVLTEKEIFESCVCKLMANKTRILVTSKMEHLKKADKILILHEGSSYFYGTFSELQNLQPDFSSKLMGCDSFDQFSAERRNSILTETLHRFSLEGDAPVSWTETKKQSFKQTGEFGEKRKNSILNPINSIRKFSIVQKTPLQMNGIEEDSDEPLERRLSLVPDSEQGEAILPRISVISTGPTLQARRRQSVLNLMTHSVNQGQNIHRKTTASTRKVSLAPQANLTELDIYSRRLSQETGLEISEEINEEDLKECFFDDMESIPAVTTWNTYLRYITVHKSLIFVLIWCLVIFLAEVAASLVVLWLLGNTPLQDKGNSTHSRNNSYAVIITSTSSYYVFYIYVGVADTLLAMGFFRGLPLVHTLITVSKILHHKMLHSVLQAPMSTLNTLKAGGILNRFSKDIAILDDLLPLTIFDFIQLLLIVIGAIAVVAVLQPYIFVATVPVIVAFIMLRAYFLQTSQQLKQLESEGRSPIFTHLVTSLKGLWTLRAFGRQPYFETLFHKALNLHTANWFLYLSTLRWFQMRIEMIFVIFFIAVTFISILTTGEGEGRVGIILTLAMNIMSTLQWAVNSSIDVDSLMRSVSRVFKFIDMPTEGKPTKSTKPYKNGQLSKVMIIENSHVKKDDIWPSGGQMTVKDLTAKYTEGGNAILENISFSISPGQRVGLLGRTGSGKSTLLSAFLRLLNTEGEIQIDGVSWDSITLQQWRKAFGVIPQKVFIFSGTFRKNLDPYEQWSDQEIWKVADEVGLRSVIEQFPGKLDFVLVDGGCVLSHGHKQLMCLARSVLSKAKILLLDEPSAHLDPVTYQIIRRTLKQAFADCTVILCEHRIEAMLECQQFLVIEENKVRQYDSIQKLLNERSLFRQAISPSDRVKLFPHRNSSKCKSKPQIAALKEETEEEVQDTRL

Take `O=C(Nc1ccc(Cc2ccccc2)nc1)C1(c2ccc3c(c2)OCO3)CC1` [Compound 19, 1-(benzo[d][1,3]dioxol-5-yl)-N-(6-benzylpyridin-3-yl)cyclopropanecarboxamide]: the Emax was greater than 100%.

`Cc1ncc(NC(=O)C2(c3ccc4c(c3)OCO4)CC2)cc1-c1cccc(S(N)(=O)=O)c1` [Compound 20, 1-(benzo[d][1,3]dioxol-5-yl)-N-(6-methyl-5-(3-sulfamoylphenyl)pyridin-3-yl)cyclopropanecarboxamide]: the Emax was in the range of 25 to 100%.

For `COc1ccc(C2(C(=O)Nc3cnccn3)CC2)cc1` [Compound 21], the Emax was in the range of 25 to 100%.

For the molecule `COc1cc(NC(=O)C2(c3ccc4c(c3)OCO4)CC2)nc(OC)n1` [Compound 22, 1-(benzo[d][1,3]dioxol-5-yl)-N-(2,6-dimethoxypyrimidin-4-yl)cyclopropanecarboxamide], the Emax was greater than 100%.

With `O=C(Nc1ncc2c(n1)-c1ccoc1CC2)C1(c2ccc3c(c2)OCO3)CC1` [Compound 23, 1-(benzo[d][1,3]dioxol-5-yl)-N-(5,6-dihydrofuro[2,3-h]quinazolin-2-yl)cyclopropanecarboxamide], the Emax was in the range of 25 to 100%.

As to `COc1ccccc1-c1ccc(NC(=O)C2(c3ccc4c(c3)OCO4)CC2)cn1` [Compound 24, 1-(benzo[d][1,3]dioxol-5-yl)-N-(6-(2-methoxyphenyl)pyridin-3-yl)cyclopropanecarboxamide], the Emax was greater than 100%.

Take `Cc1ccnc(NC(=O)C2(c3ccc4c(c3)OCO4)CC2)n1` [Compound 25, 1-(benzo[d][1,3]dioxol-5-yl)-N-(4-methylpyrimidin-2-yl)cyclopropanecarboxamide]: the Emax fell in the range of 25 to 100%.

As to `Cc1cccc(Oc2ccc(NC(=O)C3(c4ccc5c(c4)OCO5)CC3)cn2)c1C` [Compound 26, 1-(benzo[d][1,3]dioxol-5-yl)-N-(6-(2,3-dimethylphenoxy)pyridin-3-yl)cyclopropanecarboxamide], the Emax lay in the range of 25 to 100%.

Regarding `O=C(Nc1cncc(Cc2ccccc2)n1)C1(c2ccc3c(c2)OCO3)CC1` [Compound 27, 1-(benzo[d][1,3]dioxol-5-yl)-N-(6-benzylpyrazin-2-yl)cyclopropanecarboxamide], the Emax is greater than 100%.

As to `Cc1cnc(NC(=O)C2(c3ccc4c(c3)OC(F)(F)O4)CC2)nc1-c1ccc(=O)[nH]c1` [Compound 28, 1-(2,2-difluorobenzo[d][1,3]dioxol-5-yl)-N-(5-methyl-4-(6-oxo-1,6-dihydropyridin-3-yl)pyrimidin-2-yl)cyclopropanecarboxamide], the Emax fell in the range of 25 to 100%.

Take `Cc1ncc(NC(=O)C2(c3ccc4c(c3)OCO4)CC2)cc1-c1ccc(CO)cc1` [Compound 29]: the Emax is 25 to 100%.

`CNS(=O)(=O)c1ccc(-c2cc(NC(=O)C3(c4ccc5c(c4)OCO5)CC3)cnc2C)cc1` [Compound 30, 1-(benzo[d][1,3]dioxol-5-yl)-N-(6-methyl-5-(4-(N-methylsulfamoyl)phenyl)pyridin-3-yl)cyclopropanecarboxamide]: the Emax was greater than 100%.

Turning to `CC(C)c1ccc(NC(=O)C2(c3ccc4c(c3)OCO4)CC2)cn1` [Compound 31, 1-(Benzo[d][1,3]dioxol-5-yl)-N-(6-isopropylpyridin-3-yl)cyclopropanecarboxamide], the Emax was in the range of 25 to 100%.

On to `O=C(Nc1ccc(-c2ccccc2)nc1)C1(c2ccc3c(c2)OCO3)CC1` [Compound 32, 1-(benzo[d][1,3]dioxol-5-yl)-N-(6-phenylpyridin-3-yl)cyclopropanecarboxamide], for which the Emax was greater than 100%.

On to `COc1ccccc1Cc1cncc(NC(=O)C2(c3ccc4c(c3)OCO4)CC2)n1` [Compound 33], for which the Emax was greater than 100%.

As to `COc1ccccc1Cc1cnc(NC(=O)C2(c3ccc4c(c3)OCO4)CC2)cn1` [Compound 34], the Emax is 25 to 100%.

Turning to `Cc1cc(O)nc(NC(=O)C2(c3ccc4c(c3)OCO4)CC2)n1` [Compound 35, 1-(benzo[d][1,3]dioxol-5-yl)-N-(4-hydroxy-6-methylpyrimidin-2-yl)cyclopropanecarboxamide], the Emax is 25 to 100%.

With `O=C(Nc1ccnc(Cc2ccccc2)c1)C1(c2ccc3c(c2)OCO3)CC1` [Compound 36, 1-(benzo[d][1,3]dioxol-5-yl)-N-(2-benzylpyridin-4-yl)cyclopropanecarboxamide], the Emax was greater than 100%.

As to `O=C(Nc1ccc(Cc2ccccc2Cl)nc1)C1(c2ccc3c(c2)OCO3)CC1` [Compound 37, 1-(benzo[d][1,3]dioxol-5-yl)-N-(6-(2-chlorobenzyl)pyridin-3-yl)cyclopropanecarboxamide], the Emax was greater than 100%.

As for `Cc1ncc(NC(=O)C2(c3ccc4c(c3)OCO4)CC2)cc1-c1cccc(C(=O)O)c1` [Compound 38, 3-(5-(1-(benzo[d][1,3]dioxol-5-yl)cyclopropanecarboxamido)-2-methylpyridin-3-yl)benzoic acid], the Emax was in the range of 25 to 100%.

As for `Cc1ncc(NC(=O)C2(c3ccc4c(c3)OCO4)CC2)cc1-c1ccc(C(N)=O)cc1` [Compound 39], the Emax fell in the range of 25 to 100%.

For the molecule `Cc1ncc(NC(=O)C2(c3ccc4c(c3)OCO4)CC2)cc1-c1cccc(CO)c1` [Compound 40], the Emax is greater than 100%.

`O=C(N(c1ccnc(C(F)(F)F)c1)c1ccccn1)C1(c2ccc3c(c2)OCO3)CC1` [Compound 41, 1-(benzo[d][1,3]dioxol-5-yl)-N-(pyridin-2-yl)-N-(2-(trifluoromethyl)pyridin-4-yl)cyclopropanecarboxamide]: the Emax lay within 25 to 100%.

In the case of `Cc1ncc(NC(=O)C2(c3ccc4c(c3)OCO4)CC2)cc1-c1ccccc1` [Compound 42, 1-(benzo[d][1,3]dioxol-5-yl)-N-(6-methyl-5-phenylpyridin-3-yl)cyclopropanecarboxamide], the Emax is greater than 100%.

`COc1ccccc1Nc1ccc(NC(=O)C2(c3ccc4c(c3)OCO4)CC2)cn1` [Compound 43, 1-(benzo[d][1,3]dioxol-5-yl)-N-(6-(2-methoxyphenylamino)pyridin-3-yl)cyclopropanecarboxamide]: the Emax was greater than 100%.

On to `O=C(Nc1ccc(Cc2ccccc2)nn1)C1(c2ccc3c(c2)OCO3)CC1` [Compound 44], for which the Emax is 25 to 100%.

As for `Cc1cnc(NC(=O)C2(c3ccc4c(c3)OC(F)(F)O4)CC2)nc1-c1cccc(C(=O)O)c1` [Compound 45, 3-(2-(1-(2,2-difluorobenzo[d][1,3]dioxol-5-yl)cyclopropanecarboxamido)-5-methylpyrimidin-4-yl)benzoic acid], the Emax was 25 to 100%.

Turning to `O=C(Nc1ccc(Cc2ccccc2Cl)nn1)C1(c2ccc3c(c2)OCO3)CC1` [Compound 46], the Emax lay within 25 to 100%.

For the molecule `COc1ccccc1Cc1cc(NC(=O)C2(c3ccc4c(c3)OCO4)CC2)ccn1` [Compound 47], the Emax is greater than 100%.

The record behind these values is patent US9751890B2, “Heteroaryl derivatives as CFTR modulators” (Vertex Pharmaceuticals Incorporated, priority 2008, dated 2017).
